From the NIST ThermoML archive (doi:10.1016/j.jct.2009.11.018)
Numbers after ± are expanded uncertainties.

Assay: xn = mol fraction of the nth substance listed
Conditions: 298.15 K, 101 kPa, Liquid, Pycnometric method

SMILES	mass density (x1 = 0.0625)	mass density (x1 = 0.1347)	mass density (x1 = 0.2153)	mass density (x1 = 0.3019)	mass density (x1 = 0.3915)	mass density (x1 = 0.4804)	mass density (x1 = 0.5651)	mass density (x1 = 0.6428)	mass density (x1 = 0.7115)	mass density (x1 = 0.7703)	mass density (x1 = 0.8195)	mass density (x1 = 0.8595)	mass density (x1 = 0.8916)	mass density (x1 = 0.9244)	mass density (x1 = 0.0731)	mass density (x1 = 0.1555)	mass density (x1 = 0.2449)	mass density (x1 = 0.3384)	mass density (x1 = 0.4321)	mass density (x1 = 0.5223)	further results
CCC(O)CO (centres undefined) [1,2-butanediol] + O	1009.5 ± 2.7 kg/m3	1015.8 ± 2.7 kg/m3	1016.4 ± 2.7 kg/m3	1014.2 ± 2.7 kg/m3	1011.6 ± 2.7 kg/m3	1009.2 ± 2.7 kg/m3	1006.9 ± 2.7 kg/m3	1005.2 ± 2.7 kg/m3	1003.6 ± 2.7 kg/m3	1002.4 ± 2.7 kg/m3	1001.4 ± 2.7 kg/m3	1000.7 ± 2.7 kg/m3	1000.2 ± 2.7 kg/m3	999.9 ± 2.7 kg/m3	–	–	–	–	–	–	–
CC(O)CO (centres undefined) [1,2-propanediol] + O	–	–	–	–	–	–	–	–	–	–	–	–	–	–	1016.4 ± 2.7 kg/m3	1031.1 ± 2.7 kg/m3	1037.7 ± 2.7 kg/m3	1039.6 ± 2.7 kg/m3	1039.8 ± 2.7 kg/m3	1039 ± 2.7 kg/m3	mass density (x1 = 0.6058): 1038 ± 2.7 kg/m3; mass density (x1 = 0.6803): 1036.8 ± 2.7 kg/m3; mass density (x1 = 0.7446): 1035.9 ± 2.7 kg/m3; mass density (x1 = 0.7987): 1035 ± 2.7 kg/m3; mass density (x1 = 0.843): 1034.5 ± 2.7 kg/m3; mass density (x1 = 0.8786): 1033.8 ± 2.7 kg/m3; mass density (x1 = 0.9068): 1033.4 ± 2.7 kg/m3; mass density (x1 = 0.9355): 1033.1 ± 2.7 kg/m3
CC(O)CCO (centres undefined) [1,3-butanediol] + O	1008.2 ± 2.7 kg/m3	1015.9 ± 2.7 kg/m3	1019.2 ± 2.7 kg/m3	1018.8 ± 2.7 kg/m3	1016.8 ± 2.7 kg/m3	1014.4 ± 2.7 kg/m3	1012.2 ± 2.7 kg/m3	1009.9 ± 2.7 kg/m3	1007.9 ± 2.7 kg/m3	1006.2 ± 2.7 kg/m3	1004.8 ± 2.7 kg/m3	1003.8 ± 2.6 kg/m3	1003 ± 2.6 kg/m3	1002.2 ± 2.6 kg/m3	–	–	–	–	–	–	–
OCCCCO [1,4-butanediol] + O	1006.6 ± 2.7 kg/m3	1015 ± 2.7 kg/m3	1019.9 ± 2.7 kg/m3	1021.6 ± 2.7 kg/m3	1021.7 ± 2.7 kg/m3	1021 ± 2.7 kg/m3	1020 ± 2.7 kg/m3	1018.8 ± 2.7 kg/m3	1017.5 ± 2.7 kg/m3	1016.6 ± 2.7 kg/m3	1015.7 ± 2.7 kg/m3	1015.1 ± 2.7 kg/m3	1014.7 ± 2.7 kg/m3	1014.1 ± 2.7 kg/m3	–	–	–	–	–	–	–
CC(O)C(C)O (centres undefined) [2,3-butanediol] + O	–	–	–	–	–	–	–	–	–	–	–	–	–	–	–	–	–	–	–	–	mass density (x1 = 0.0618): 1014.1 ± 2.7 kg/m3; mass density (x1 = 0.1379): 1021.5 ± 2.7 kg/m3; mass density (x1 = 0.1796): 1023.1 ± 2.7 kg/m3; mass density (x1 = 0.2179): 1023.2 ± 2.7 kg/m3; mass density (x1 = 0.2417): 1022.7 ± 2.7 kg/m3; mass density (x1 = 0.2696): 1022 ± 2.7 kg/m3; mass density (x1 = 0.3027): 1021 ± 2.7 kg/m3; mass density (x1 = 0.3426): 1019.5 ± 2.7 kg/m3; mass density (x1 = 0.3913): 1017.6 ± 2.7 kg/m3; mass density (x1 = 0.4524): 1015.2 ± 2.7 kg/m3; mass density (x1 = 0.5308): 1012.2 ± 2.7 kg/m3; mass density (x1 = 0.6352): 1008.4 ± 2.7 kg/m3; mass density (x1 = 0.7805): 1004.1 ± 2.7 kg/m3; mass density (x1 = 0.9001): 1000.9 ± 2.7 kg/m3
OCCCO [propan-1,3-diol] + O	–	–	–	–	–	–	–	–	–	–	–	–	–	–	1015.1 ± 2.7 kg/m3	1028.5 ± 2.7 kg/m3	1038.2 ± 2.8 kg/m3	1044.4 ± 2.8 kg/m3	1047.9 ± 2.8 kg/m3	1049.6 ± 2.8 kg/m3	mass density (x1 = 0.6058): 1050.3 ± 2.8 kg/m3; mass density (x1 = 0.6803): 1050.4 ± 2.8 kg/m3; mass density (x1 = 0.7446): 1050.5 ± 2.8 kg/m3; mass density (x1 = 0.7987): 1050.5 ± 2.8 kg/m3; mass density (x1 = 0.843): 1050.4 ± 2.8 kg/m3; mass density (x1 = 0.8786): 1050.4 ± 2.8 kg/m3; mass density (x1 = 0.9068): 1050.2 ± 2.8 kg/m3; mass density (x1 = 0.9355): 1049.9 ± 2.8 kg/m3
